Several values for one entry are separate records, joined by “and”; a condition that tells them apart may be missing. Equal entries are not always repeated. Where two headings read alike, the source gives them in different places. One block for each molecule: values may come before it.
Key:
[1] = Cellular toxicity in A549 cells (WST-8 cell viability); format: cell-based; settings: human
Procedure: Cell viability was performed in 96-well plate with triplicate for each concentration. All drugs were diluted 2 times with 9 gradients starting at 500 micromores in maintenance medium (DMEM containing 2% FBS). After 48 h incubation, the supernatant was removed, and 10 μL WST-8 (2-(2-methoxy-4-(phenyl)-3-(4-(phenyl) to 5 (2, 4-sulpho benzene) -2 h-tetrazolium monosodium salt) in maintenance medium was added in medium. Plates were measured at 450 nm wavelength using spectrophotometer (BioTek) after 2 h incubation, and cell viability was calculated.

RSV A2 [2] = assay: Inhibition of RSV A2 replication in A549 cells (qRT-PCR); format: cell-based, respiratory syncytial virus; settings: for EC50: human respiratory syncytial virus, RSV A2 MOI 2, 48 h
Procedure: A549, HEp-2 or NHBE cells were plated into 48 well-plate and incubated overnight. Upon reaching 80% cell confluence, cells were infected RSV A2 (at an MOI of 2 in A549, MOI of 0.5 in HEp-2, and MOI of 1 in NHBE cells) for 2 h after cells were incubated for 1 h with varying concentrations of drugs. Then, the virus-drug mixture was removed, and cells were cultured with drug-containing medium. At 48 h post inoculation, total RNAs were extracted from cells and then in reverse transcription using PrimeScript RT reagent Kit with gDNA Eraser (TaKaRa). For determining the viral copies, absolute quantitative RT-PCR was performed with TB Green® Premix Ex Taq^TM II (TaKaRa). RSV A2 F fragment was quantified with primers 5’-[…]-3’; and 5’-[…]-3’

RSV = tested on: RSV; set-up: method as in PMID 8413475; settings: prophylactic treatment; cited from earlier work
RSV A2 [3] = format: in vivo, Balb/c mice; settings: ribavirin 100 mg/kg b.i.d., day 4 p.i.
Procedure: Considering the potent effect of VV116 inhibiting RSV in vitro, we further tested the effect of […] against RSV in a mouse model. Ribavirin, the off-label used drug to treat RSV in the clinic, was employed as a control. To this end, 6–8-week Balb/c mice were intranasally infected with 4 × 10^6 FFU of RSV per mouse (day 0), and were then treated with VV116 (25, 50, and 100 mg/kg) or ribavirin (50 and 100 mg/kg) bis in die (b.i.d.) (supplementary Fig S3). […] Viral RNA level in the lung was measured with quantitative RT-PCR and virion load was measured with immunoplaque assay (Fig. 1e). […] We also evaluated the lung pathology of the challenged mice by histochemical analysis.
Specific pathogen-free (SPF) female Balb/c mice at the age of 6–8 weeks were purchased from Beijing Vital River Laboratory Animal Technology Co., Ltd. The mice were housed in an SPF environment under standard conditions. All mouse experiments were approved by the ethics committee of the Wuhan Institute of Virology, Chinese Academy of Science (permit number WIVA25202113). Thirty mice (5 animals per group, 6 groups) were anaesthetized with isoflurane and challenged with 4×10^6 FFU of RSV A2 intranasally (i.n.). The mice were given drugs by intragastric administration. Treatments were commenced in 1 h post infection and continued for 4 days. […] The weight of the mice was recorded daily. […]

[4] = Pharmacokinetic study in SD rats; format: in vivo
Procedure: SD rats (N = 3 for each group, male) were fasted for 12 h before dosing (only for the oral administration). The test compound (VV116 or VV116-H) was administered intravenously at 5.0 mg/kg dissolved in DMSO-enthanol-PEG300-saline (5/5/40/50, v/v/v/v), and administered orally at 30 mg/kg dissolved in 40%PEG400+10% Kolliphor® HS15+50% ultrapure water. At 5 min, 0.25, 0.5, 1.0, 2.0, 4.0, 6.0, 8.0, and 24 h post-dosing, blood samples were collected from the jugular vein into EDTA-K2 tubes. […] samples were obtained following general procedures and the concentrations of analytes in the supernatant were analyzed by LC-MS/MS.

[5] = A549 cells, 48 h, read-out: CC50
[6] = X1 (VV116) or GS-441524 (VV116-H), i.v. 5.0 mg/kg
[7] = X1 (VV116) or GS-441524 (VV116-H), p.o. 30.0 mg/kg

Molecule: CCC(CC)COC(=O)[C@H](C)N[P@](=O)(OC[C@H]1O[C@@](C#N)(c2ccc3c(N)ncnn23)[C@H](O)[C@@H]1O)Oc1ccccc1 [RDV, Remdesivir]
CC50 at 48 h [1]: 226000 ± 11400 nM
SI (RSV A2 [2]): 11300
EC50 (RSV A2 [2]): 20 ± 3 nM

Molecule: palivizumab: approved prophylactic treatment for prevention of serious RSV lower respiratory tract disease in high-risk children
Share of individuals in whom effective in preventing hospitalization (RSV): ~ 50%

Molecule: NC(=O)c1ncn([C@@H]2O[C@H](CO)[C@@H](O)[C@H]2O)n1 [ribavirin, Ribavirin]
Decrease of infectious titers in lung (RSV A2 [3]): ~ 2.0 log10
Decrease of viral RNA copies in lung (RSV A2 [3]): ~ 1.5 log10

Now from value to molecule, other results behind:

EC50 (RSV A2 [2]): 280 ± 70 nM
Molecule: Nc1ccn([C@@H]2O[C@@](CO)(CCl)[C@@H](O)[C@H]2F)c(=O)n1 [ALS-8112]
CC50 at 48 h [1, 5]: > 500000 nM
SI (RSV A2 [2]): > 1785

EC50 (RSV A2 [2]): 1200 ± 320 nM
Molecule: [2H]c1cc([C@]2(C#N)O[C@H](COC(=O)C(C)C)[C@@H](OC(=O)C(C)C)[C@H]2OC(=O)C(C)C)n2ncnc(N)c12 [X6]
CC50 at 48 h [1, 5]: 95900 ± 9270 nM
SI (RSV A2 [2]): 80

EC50 (RSV A2 [2]): 820 ± 460 nM
Molecule: N#C[C@@]1(c2ccc3c(N)ncnn23)O[C@H](CO)[C@@H](O)[C@H]1O [GS-441524, 1′-CN-4-aza-7,9-dideazaadenosine C-nucleoside]
CC50 at 48 h [1, 5]: > 500000 nM
SI (RSV A2 [2]): > 608

Concentration of X1 or GS-441524 in plasma, Mean ([4]; IV 5.0 mg/kg, 5 min): 1997 ng/mL
Concentration of X1 or GS-441524 in plasma, individual rats ([4]; IV 5.0 mg/kg, 5 min, 5 mg/kg): 1940 ng/mL and 1960 ng/mL and 2090 ng/mL
Concentration of X1 or GS-441524 in plasma, Mean ([4]; IV 5.0 mg/kg, 0.25 h): 1557 ng/mL
Concentration of X1 or GS-441524 in plasma, individual rats ([4]; IV 5.0 mg/kg, 0.25 h, 5 mg/kg): 1560 ng/mL and 1620 ng/mL and 1490 ng/mL
Concentration of X1 or GS-441524 in plasma, Mean ([4]; IV 5.0 mg/kg, 0.5 h): 983 ng/mL
Concentration of X1 or GS-441524 in plasma, individual rats ([4]; IV 5.0 mg/kg, 0.5 h, 5 mg/kg): 1040 ng/mL and 921 ng/mL and 988 ng/mL
Concentration of X1 or GS-441524 in plasma, Mean ([4]; IV 5.0 mg/kg, 1.0 h): 502 ng/mL
Concentration of X1 or GS-441524 in plasma, individual rats ([4]; IV 5.0 mg/kg, 1.0 h, 5 mg/kg): 425 ng/mL and 522 ng/mL and 558 ng/mL
Concentration of X1 or GS-441524 in plasma, Mean ([4]; IV 5.0 mg/kg, 2.0 h): 158 ng/mL
Concentration of X1 or GS-441524 in plasma, individual rats ([4]; IV 5.0 mg/kg, 2.0 h, 5 mg/kg): 150 ng/mL and 163 ng/mL and 162 ng/mL
Concentration of X1 or GS-441524 in plasma, Mean ([4]; IV 5.0 mg/kg, 4.0 h): 25 ng/mL
Concentration of X1 or GS-441524 in plasma, individual rats ([4]; IV 5.0 mg/kg, 4.0 h, 5 mg/kg): 23.6 ng/mL and 24.3 ng/mL and 27.8 ng/mL
Concentration of X1 or GS-441524 in plasma, Mean ([4]; IV 5.0 mg/kg, 6.0 h): 11 ng/mL
Concentration of X1 or GS-441524 in plasma, individual rats ([4]; IV 5.0 mg/kg, 6.0 h, 5 mg/kg): BQL (2×) and 11.2 ng/ml
Concentration of X1 or GS-441524 in plasma, individual rats ([4]; IV 5.0 mg/kg, 8.0 h): BQL
Concentration of X1 or GS-441524 in plasma, individual rats ([4]; IV 5.0 mg/kg, 24.0 h): BQL
Concentration of X1 or GS-441524 in plasma, Mean ([4]; PO 30.0 mg/kg, 5 min): 251 ng/mL
Concentration of X1 or GS-441524 in plasma, individual rats ([4]; PO 30.0 mg/kg, 5 min, 30 mg/kg): 122 ng/mL and 279 ng/mL and 353 ng/mL
Concentration of X1 or GS-441524 in plasma, Mean ([4]; PO 30.0 mg/kg, 0.25 h): 1480 ng/mL
Concentration of X1 or GS-441524 in plasma, individual rats ([4]; PO 30.0 mg/kg, 0.25 h, 30 mg/kg): 1450 ng/mL and 1180 ng/mL and 1810 ng/mL
Concentration of X1 or GS-441524 in plasma, Mean ([4]; PO 30.0 mg/kg, 0.5 h): 1963 ng/mL
Concentration of X1 or GS-441524 in plasma, individual rats ([4]; PO 30.0 mg/kg, 0.5 h, 30 mg/kg): 1790 ng/mL and 1440 ng/mL and 2660 ng/mL
Concentration of X1 or GS-441524 in plasma, Mean ([4]; PO 30.0 mg/kg, 1.0 h): 1523 ng/mL
Concentration of X1 or GS-441524 in plasma, individual rats ([4]; PO 30.0 mg/kg, 1.0 h, 30 mg/kg): 1570 ng/mL and 1490 ng/mL and 1510 ng/mL
Concentration of X1 or GS-441524 in plasma, Mean ([4]; PO 30.0 mg/kg, 2.0 h): 1717 ng/mL
Concentration of X1 or GS-441524 in plasma, individual rats ([4]; PO 30.0 mg/kg, 2.0 h, 30 mg/kg): 1610 ng/mL and 1730 ng/mL and 1810 ng/mL
Concentration of X1 or GS-441524 in plasma, Mean ([4]; PO 30.0 mg/kg, 4.0 h): 860 ng/mL
Concentration of X1 or GS-441524 in plasma, individual rats ([4]; PO 30.0 mg/kg, 4.0 h, 30 mg/kg): 761 ng/mL and 995 ng/mL and 825 ng/mL
Concentration of X1 or GS-441524 in plasma, Mean ([4]; PO 30.0 mg/kg, 6.0 h): 179 ng/mL
Concentration of X1 or GS-441524 in plasma, individual rats ([4]; PO 30.0 mg/kg, 6.0 h, 30 mg/kg): 154 ng/mL and 165 ng/mL and 218 ng/mL
Concentration of X1 or GS-441524 in plasma, Mean ([4]; PO 30.0 mg/kg, 8.0 h): 76 ng/mL
Concentration of X1 or GS-441524 in plasma, individual rats ([4]; PO 30.0 mg/kg, 8.0 h, 30 mg/kg): 32.8 ng/mL and 90 ng/mL and 106 ng/mL
Concentration of X1 or GS-441524 in plasma, Mean ([4]; PO 30.0 mg/kg, 24.0 h): 13 ng/mL
Concentration of X1 or GS-441524 in plasma, individual rats ([4]; PO 30.0 mg/kg, 24.0 h, 30 mg/kg): 9.79 ng/mL and 23.3 ng/mL and 6.27 ng/mL
AUC0-t [4, 6]: 1689 ± 80 ng·h/mL
AUC0-∞ [4, 6]: 1709 ± 74 ng·h/mL
CL [4, 6]: 48.8 ± 2.1 mL/min/kg
Cmax [4, 6]: 1997 ± 81 ng/mL
MRT0-∞ [4, 6]: 0.82 ± 0.05 h
T1/2 [4, 6]: 0.73 ± 0.07 h
Vss [4, 6]: 2.41 ± 0.05 L/kg
AUC0-t [4, 7]: 7664 ± 802 ng·h/mL
AUC0-∞ [4, 7]: 7768 ± 827 ng·h/mL
Cmax [4, 7]: 2060 ± 520 ng/mL
MRT0-∞ [4, 7]: 3.47 ± 0.80 h
T1/2 [4, 7]: 4.59 ± 2.08 h
Tmax [4, 7]: 1.00 ± 0.87 h
F ([4]; X1 (VV116) or GS-441524 (VV116-H), p.o. 30.0 mg/kg vs i.v. 5.0 mg/kg): 75.6%
Molecule: CC(C)C(=O)OC[C@H]1O[C@@](C#N)(c2ccc3c(N)ncnn23)[C@H](OC(=O)C(C)C)[C@@H]1OC(=O)C(C)C [VV116-H]

Source: paper PMC9012943, “Oral remdesivir derivative VV116 is a potent inhibitor of respiratory syncytial virus with efficacy in mouse model” (Signal Transduction and Targeted Therapy, 2022)
